Data published in article PMC12458683, “Water-Based Pharmacophore Modeling in Kinase Inhibitor Design: A Case Study on Fyn and Lyn Protein Kinases” (Journal of Chemical Information and Modeling, 2025).

Assays:
Lyn (h) = target: T1, Lyn (h) (Homo sapiens, UniProt P07948); assay: radiometric kinase assay ([gamma-33P]-ATP, filter binding), 9-point dilution; assay type: biochemical
T1 construct: Eurofins KinaseProfiler enzyme
From the text: radiometric kinase assay ([gamma-33P]-ATP, filter binding), 9-point dilution on Lyn (h)

Fyn (h) = target: T2, Fyn (h) (Homo sapiens, UniProt P06241); assay: as above; assay type: biochemical
T2 construct: Eurofins KinaseProfiler enzyme
T2 sequence (P06241 2-537): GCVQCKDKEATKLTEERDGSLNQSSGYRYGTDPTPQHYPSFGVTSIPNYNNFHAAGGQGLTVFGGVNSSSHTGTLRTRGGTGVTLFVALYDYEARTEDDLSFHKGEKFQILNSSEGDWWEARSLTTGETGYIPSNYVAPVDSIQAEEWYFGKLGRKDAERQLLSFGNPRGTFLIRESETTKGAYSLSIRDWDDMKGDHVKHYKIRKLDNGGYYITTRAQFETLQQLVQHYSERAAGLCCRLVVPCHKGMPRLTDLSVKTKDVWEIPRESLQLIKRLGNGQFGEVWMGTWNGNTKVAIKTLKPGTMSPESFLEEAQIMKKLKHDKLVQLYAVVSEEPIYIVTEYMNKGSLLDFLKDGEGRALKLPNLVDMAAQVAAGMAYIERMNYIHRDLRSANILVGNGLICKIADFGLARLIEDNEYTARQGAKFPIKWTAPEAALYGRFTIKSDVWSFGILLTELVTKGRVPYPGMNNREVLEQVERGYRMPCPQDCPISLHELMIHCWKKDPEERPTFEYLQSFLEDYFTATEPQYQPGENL
From the text: radiometric kinase assay ([gamma-33P]-ATP, filter binding), 9-point dilution on Fyn (h)

T1 sequence (P07948 2-512): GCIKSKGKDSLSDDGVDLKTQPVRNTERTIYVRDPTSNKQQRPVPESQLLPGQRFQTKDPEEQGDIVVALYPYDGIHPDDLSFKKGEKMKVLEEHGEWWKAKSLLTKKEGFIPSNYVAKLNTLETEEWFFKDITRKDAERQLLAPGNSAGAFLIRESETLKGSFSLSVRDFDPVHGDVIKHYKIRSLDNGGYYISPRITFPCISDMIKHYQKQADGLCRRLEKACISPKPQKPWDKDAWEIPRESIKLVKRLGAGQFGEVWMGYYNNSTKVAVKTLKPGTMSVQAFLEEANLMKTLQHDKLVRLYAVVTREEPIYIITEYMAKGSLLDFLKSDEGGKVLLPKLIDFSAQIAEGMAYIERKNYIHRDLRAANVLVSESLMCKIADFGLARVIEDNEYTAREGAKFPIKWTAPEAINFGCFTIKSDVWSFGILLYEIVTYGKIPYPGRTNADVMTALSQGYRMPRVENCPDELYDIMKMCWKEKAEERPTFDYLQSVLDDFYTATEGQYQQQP

IC50 (Lyn (h)): 4.39 µM
IC50 (Fyn (h)): 8.66 µM
Structure (SMILES): COc1cc(O)c2c(=O)c(-c3ccc(O[C@@H]4O[C@H](CO)[C@@H](O)[C@H](O)[C@H]4O)cc3)coc2c1 [compound 1]
